Source: ChEMBL document CHEMBL3507680, “University of Dundee, Gates Library screen for HepG2 cell viability”

Test: Human HepG2 cell viability assay in 384 well format
Assay type: toxicity, cell-based
Set-up: dose 125 nL, time 70.5 hour; cytotoxicity at 70.5 h: concentration not given beside the values
Details: HepG2 cells, read-out: Inhibition

| Structure (SMILES) | cytotoxicity at 70.5 h [%] |
| --- | --- |
| COCC1CC2(CCN(C(=O)c3oc4ccccc4c3C)CC2)CO1 (stereo unspecified) | 3.46 |
| Cn1nc(C#N)c2c1CN(C(=O)c1ccsc1)CCC2 | 5.67 |
| Cc1nc(CN2CCO[C@H]3CN(C(=O)c4cccn4C)C[C@H]32)cs1 | 5.54 |
| Cc1nc(CN2CCO[C@H]3CN(C(=O)c4ccncc4)C[C@H]32)cs1 | 6.5 |
| Cc1nn(CCc2nnc(NCC(C)C)s2)c(C)c1Br | -16 |
| Cc1cc(C(F)(F)F)nn1C(C)C(=O)NN1CCOCC1 (stereo unspecified) | -7.56 |
| Cc1nn(CC(=O)N2CCN(Cc3cn(C)nc3C)CC2)cc1Br | 25.1 |
| CCn1ncc(CN(C)C(=O)c2ccn(C)n2)c1C | -6.74 |
| Cc1nn(CC(=O)N2CCN(Cc3cnn(C)c3C)CC2)cc1Br | 29.4 |
| Cc1nn(Cc2ccc(C(=O)NCCCN3CCCC3=O)o2)c(C)c1Br | -7.69 |
| Cc1cc(C(F)(F)F)nn1CC(C)C(=O)Nc1cccnc1 (stereo unspecified) | -3.81 |
| CCn1nc(C)c(CN(C)S(=O)(=O)c2cnn(C)c2)c1C | -5.84 |
| CS(=O)(=O)N1CCC(C(=O)NCCCn2cc(Cl)cn2)CC1 | -13.1 |
| CCS(=O)(=O)Nc1ccn(Cc2ccc(F)cc2Cl)n1 | -8.72 |
| CCS(=O)(=O)Nc1cnn(Cc2cccc(F)c2)c1 | -4.79 |
| Cn1cc(-c2cc(-c3cnn(C)c3)n(CC(=O)NC3CC3)n2)cn1 | -20.4 |
| CCc1nnc(SCc2nonc2C)n1C | -11.2 |
| Cn1nc(C(=O)N2CCOCC2)cc1C(=O)Nc1c(Cl)cccc1Cl | -2.69 |
| Cn1cc(NC(=O)c2cc3c(s2)CCCC3)cn1 | -0.0582 |
| O=C(NC1CCCC1)c1cnn2c(-c3ccco3)ccnc12 | -8.37 |
| Cc1nn(CCNC(=O)c2cc(C3CC3)[nH]n2)c(C)c1Cl | 3.19 |
| Cc1c(S(=O)(=O)NCC(C)Cn2cc(Cl)cn2)cnn1C (stereo unspecified) | 1.36 |
| Cc1nn(C)cc1S(=O)(=O)N(CCc1ccccc1)Cc1ccn(C)n1 | -4.26 |

| Structure (SMILES) | cytotoxicity at 70.5 h [%] |
| --- | --- |
| CCn1cc(S(=O)(=O)N(CCc2ccccc2)Cc2ccn(C)n2)cn1 | -11.1 |
| O=C(Cn1ccc(C(=O)O)n1)Nc1c(Cl)cccc1Cl | -3.45 |
| COc1ccc2nc(NC(=O)c3c(C(=O)O)cnn3C)sc2c1 | -8.88 |
| CCn1ccc(-c2cc(C(=O)O)n3ncc(Cl)c3n2)n1 | -10.2 |
| CCn1ccc(-c2cc(C(=O)O)n3nc(C(F)(F)F)c(Br)c3n2)n1 | -3.3 |
| CCn1ncc2c(C(F)F)cc(-c3ccn(C)n3)nc21 | -7.69 |
| Cc1nn(C)cc1-c1cc(C(F)F)nc(NC2CCCCC2)n1 | -11.8 |
| O=C(NCC(F)F)c1cc(-c2ccccc2)nc2ncnn12 | -1.07 |
| CCOc1ccc2oc(-c3cnn(C)c3C)c(O)c(=O)c2c1 | -3.56 |
| Nc1no[n+]([O-])c1C(=O)NCc1cccnc1 | -0.714 |
| Nc1no[n+]([O-])c1C(=O)NCc1ccccn1 | -13.7 |
| N#Cc1cn[nH]c1NCc1cc(Br)ccc1O | -9.76 |
| N#Cc1c[nH]nc1NCc1ccc2c(c1)OCO2 | -10.8 |
| O=C(Cn1cc(I)cn1)N1CCCCCC1 | -3.07 |
| N#Cc1cn[nH]c1NCc1cc(I)cc(I)c1O | -9.83 |
| CCOC(=O)Cn1ccc(NC(=O)Cc2ccccc2F)n1 | -18.1 |
| NC(=O)c1c[nH]nc1NCc1ccc2c(c1)OCO2 | -18.7 |
| COc1cc(NCc2ccc(Cl)cc2)c(-c2nn[nH]n2)cc1OC | -0.792 |
| COc1cc(NCc2ccncc2)c(-c2nn[nH]n2)cc1OC | -1.7 |
| COc1ccc(-c2cc(C3(O)CCN(C)CC3)on2)cc1 | -0.517 |
| Fc1ccccc1-c1nnn(CCCc2nn[nH]n2)n1 | -5.54 |
| CCc1ccc(CN2CCC3(CCCN(C(=O)c4cnccn4)C3)C2)o1 (stereo unspecified) | 2.89 |
| CCn1[nH]c(C)c2c(C(F)(F)C(F)(F)F)cc(=O)nc1-2 | -1.83 |
